According to PubChem BioAssay (NCI):
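Tested at 5 concentrations; 48 h exposure; 96-well plates; endpoints linearly interpolated, else capped at highest concentration. At the GI50, growth is halved. At the TGI there is no net growth.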

Legend:
Experiment in all cases: DTP human tumour cell line panel, 48 h; in the data active means GI50 below about 0.43 µM; inactive means the rest
786-0 renal = tested on: 786-0 renal
A498 renal = tested on: A498 renal
A549 NSCLC = tested on: A549 NSCLC
ACHN renal = tested on: ACHN renal
BT-549 breast = tested on: BT-549 breast
CAKI-1 renal = tested on: CAKI-1 renal
CCRF-CEM leukemia = tested on: CCRF-CEM leukemia
COLO 205 colon = tested on: COLO 205 colon
DU-145 prostate = tested on: DU-145 prostate
EKVX NSCLC = tested on: EKVX NSCLC
HCC-2998 colon = tested on: HCC-2998 colon
HCT-116 colon = tested on: HCT-116 colon
HCT-15 colon = tested on: HCT-15 colon
HL-60(TB) leukemia = tested on: HL-60(TB) leukemia
HOP-62 NSCLC = tested on: HOP-62 NSCLC
HOP-92 NSCLC = tested on: HOP-92 NSCLC
HS 578T breast = tested on: HS 578T breast
HT29 colon = tested on: HT29 colon
IGROV1 ovarian = tested on: IGROV1 ovarian
K-562 leukemia = tested on: K-562 leukemia
KM12 colon = tested on: KM12 colon
LOX IMVI melanoma = tested on: LOX IMVI melanoma
M14 melanoma = tested on: M14 melanoma
MALME-3M melanoma = tested on: MALME-3M melanoma
MCF7 breast = tested on: MCF7 breast
MDA-MB-231 breast = tested on: MDA-MB-231 breast
MDA-MB-435 = tested on: MDA-MB-435
MOLT-4 leukemia = tested on: MOLT-4 leukemia
NCI-H226 lung = tested on: NCI-H226 lung
NCI-H23 lung = tested on: NCI-H23 lung
NCI-H460 lung = tested on: NCI-H460 lung
NCI-H522 lung = tested on: NCI-H522 lung
NCI/ADR-RES ovarian = tested on: NCI/ADR-RES ovarian
OVCAR-3 ovarian = tested on: OVCAR-3 ovarian
OVCAR-4 ovarian = tested on: OVCAR-4 ovarian
OVCAR-5 ovarian = tested on: OVCAR-5 ovarian
OVCAR-8 ovarian = tested on: OVCAR-8 ovarian
PC-3 prostate = tested on: PC-3 prostate
RPMI-8226 leukemia = tested on: RPMI-8226 leukemia
RXF 393 renal = tested on: RXF 393 renal
SF-268 CNS = tested on: SF-268 CNS
SF-295 CNS = tested on: SF-295 CNS
SF-539 CNS = tested on: SF-539 CNS
SK-MEL-2 melanoma = tested on: SK-MEL-2 melanoma
SK-MEL-28 melanoma = tested on: SK-MEL-28 melanoma
SK-MEL-5 melanoma = tested on: SK-MEL-5 melanoma
SK-OV-3 ovarian = tested on: SK-OV-3 ovarian
SN12C renal = tested on: SN12C renal
SNB-19 CNS = tested on: SNB-19 CNS
SNB-75 CNS = tested on: SNB-75 CNS
SR leukemia = tested on: SR leukemia
SW-620 colon = tested on: SW-620 colon
T-47D breast = tested on: T-47D breast
TK-10 renal = tested on: TK-10 renal
U251 CNS = tested on: U251 CNS
UACC-62 melanoma = tested on: UACC-62 melanoma
UO-31 renal = tested on: UO-31 renal

CCCCCCCC(=O)SCC/C=C/[C@@H]1CC(=O)NCc2cc(ccn2)C2=N[C@@](C)(CS2)C(=O)N[C@@H](C(C)C)C(=O)O1
1620 nM: TGI (NCI-H226 lung)
665 nM: TGI (CAKI-1 renal)
> 28700 nM: TGI (MOLT-4 leukemia)
51 nM: TGI (SK-MEL-5 melanoma)
245 nM: TGI (HCC-2998 colon)
66.6 nM: TGI (LOX IMVI melanoma)
> 9590 nM: TGI (SF-268 CNS)
> 33300 nM: TGI (786-0 renal) | TGI (BT-549 breast) | TGI (CCRF-CEM leukemia) | TGI (DU-145 prostate) | TGI (EKVX NSCLC) | TGI (HCT-15 colon) | TGI (HL-60(TB) leukemia) | TGI (HT29 colon) | TGI (K-562 leukemia) | TGI (MALME-3M melanoma) | TGI (MCF7 breast) | TGI (MDA-MB-231 breast) | TGI (NCI-H23 lung) | TGI (NCI/ADR-RES ovarian) | TGI (OVCAR-4 ovarian) | TGI (OVCAR-5 ovarian) | TGI (OVCAR-8 ovarian) | TGI (PC-3 prostate) | TGI (RPMI-8226 leukemia) | TGI (SF-539 CNS) | TGI (SN12C renal) | TGI (SNB-19 CNS) | TGI (SNB-75 CNS) | TGI (SR leukemia)
71.6 nM: TGI (SK-OV-3 ovarian)
> 11300 nM: TGI (NCI-H460 lung)
147 nM: TGI (COLO 205 colon) | TGI (SF-295 CNS)
204 nM: TGI (NCI-H522 lung)
203 nM: TGI (HS 578T breast)
214 nM: TGI (HOP-92 NSCLC)
1020 nM: TGI (SK-MEL-28 melanoma)
2490 nM: TGI (SW-620 colon)
616 nM: TGI (T-47D breast)
362 nM: TGI (OVCAR-3 ovarian)
46.6 nM: TGI (HCT-116 colon)
active: GI50 (786-0 renal) 29.1 nM | GI50 (A498 renal) 5.91 nM | GI50 (A549 NSCLC) 11.6 nM | GI50 (ACHN renal) 43.3 nM | GI50 (BT-549 breast) 43.2 nM | GI50 (CAKI-1 renal) 104 nM | GI50 (CCRF-CEM leukemia) 23.1 nM | GI50 (COLO 205 colon) 51.3 nM | GI50 (DU-145 prostate) 13.8 nM | GI50 (EKVX NSCLC) 37.6 nM | GI50 (HCC-2998 colon) 25.6 nM | GI50 (HCT-116 colon) 4.68 nM | GI50 (HCT-15 colon) 141 nM | GI50 (HL-60(TB) leukemia) 24.2 nM | GI50 (HOP-62 NSCLC) 9.58 nM | GI50 (HOP-92 NSCLC) 26.8 nM | GI50 (HS 578T breast) 7.45 nM | GI50 (HT29 colon) 11.2 nM | GI50 (IGROV1 ovarian) 9.56 nM | GI50 (K-562 leukemia) 24.8 nM | GI50 (KM12 colon) 16.9 nM | GI50 (LOX IMVI melanoma) 17.2 nM | GI50 (M14 melanoma) 11.1 nM | GI50 (MALME-3M melanoma) 8.64 nM | GI50 (MCF7 breast) 37.7 nM | GI50 (MDA-MB-231 breast) 50 nM | GI50 (MDA-MB-435) 11.5 nM | GI50 (MOLT-4 leukemia) 13.3 nM | GI50 (NCI-H226 lung) 81.8 nM | GI50 (NCI-H23 lung) 39.4 nM | GI50 (NCI-H460 lung) 7.54 nM | GI50 (NCI-H522 lung) 7.21 nM | GI50 (NCI/ADR-RES ovarian) 241 nM | GI50 (OVCAR-3 ovarian) 36.2 nM | GI50 (OVCAR-4 ovarian) 53.5 nM | GI50 (OVCAR-5 ovarian) < 11.3 nM | GI50 (OVCAR-8 ovarian) 10.9 nM | GI50 (PC-3 prostate) 12.4 nM | GI50 (RPMI-8226 leukemia) 116 nM | GI50 (RXF 393 renal) 12.8 nM | GI50 (SF-268 CNS) 38.7 nM | GI50 (SF-295 CNS) 16.6 nM | GI50 (SF-539 CNS) 20.3 nM | GI50 (SK-MEL-2 melanoma) 15 nM | GI50 (SK-MEL-28 melanoma) 12.5 nM | GI50 (SK-MEL-5 melanoma) 11.7 nM | GI50 (SK-OV-3 ovarian) 8.41 nM | GI50 (SN12C renal) 64.1 nM | GI50 (SNB-19 CNS) 109 nM | GI50 (SNB-75 CNS) 7.9 nM | GI50 (SR leukemia) 8.45 nM | GI50 (SW-620 colon) 74.9 nM | GI50 (T-47D breast) 83.8 nM | GI50 (TK-10 renal) < 14.1 nM | GI50 (U251 CNS) 29.1 nM | GI50 (UACC-62 melanoma) 6.2 nM | GI50 (UO-31 renal) 26.4 nM
41.8 nM: TGI (A498 renal)
309 nM: TGI (U251 CNS)
434 nM: TGI (ACHN renal)
> 13300 nM: TGI (M14 melanoma)
173 nM: TGI (TK-10 renal)
82.2 nM: TGI (RXF 393 renal)
426 nM: TGI (UO-31 renal)
132 nM: TGI (IGROV1 ovarian)
50.7 nM: TGI (UACC-62 melanoma)
595 nM: TGI (SK-MEL-2 melanoma)
2410 nM: TGI (KM12 colon)
